Measurements reported in patent publication US20110086759A1, “CHEMICAL COMPOUNDS” (SYNGENTA CROP PROTECTION, INC., priority 2007, published 2011).

How the values were obtained:
Type in all cases: in vivo
[1] = system: Alopecurus myosuroides (ALOMY); assay: Pre-emergence biological efficacy, glasshouse pot test; details: 312 h
Procedure, shortened: (§1)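 Damage was rated on a 0–100 scale 13 days after treatment, with plants kept at 24/16° C, 14 h light and 65% humidity. The pre-emergence spray, at 1000 or 250 g/ha in acetone/water 50:50 with 0.5% Tween 20, was applied one day after sowing.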

[2] = system: Amaranthus retoflexus (AMARE); assay: as above; details: Amaranthus retroflexus, 312 h
Procedure, shortened: as §1

[3] = system: Echinochloa crus-galli (ECHCG); assay: as above; details: 312 h
Procedure, shortened: as §1

[4] = system: Ipomea hederaceae (IPOHE); assay: as above; details: Ipomoea hederacea, 312 h
Procedure, shortened: as §1

[5] = system: Setaria faberi (SETFA); assay: as above; details: 312 h
Procedure, shortened: as §1

[6] = system: Solanum nigrum (SOLNI); assay: as above; details: 312 h
Procedure, shortened: as §1

[7] = system: Alopecurus myosuroides (ALOMY); assay: Post-emergence biological efficacy, glasshouse pot test; details: 312 h
Procedure, shortened: (§2)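 Scored 13 days after spraying on a 0 (no damage) to 100 (total damage) scale. Treatment was a post-emergence spray at 1000 or 250 g/ha, from acetone/water 50:50 plus 0.5% Tween 20, onto 8-day-old plants in soil pots. Growth at 24/16° C, 14 h photoperiod, 65% humidity, watered twice daily.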

[8] = system: Amaranthus retoflexus (AMARE); assay: as above; details: Amaranthus retroflexus, 312 h
Procedure, shortened: as §2

[9] = system: Echinochloa crus-galli (ECHCG); assay: as above; details: 312 h
Procedure, shortened: as §2

[10] = system: Ipomea hederaceae (IPOHE); assay: as above; details: Ipomoea hederacea, 312 h
Procedure, shortened: as §2

[11] = system: Setaria faberi (SETFA); assay: as above; details: 312 h
Procedure, shortened: as §2

[12] = system: Solanum nigrum (SOLNI); assay: as above; details: 312 h
Procedure, shortened: as §2

[13] = pre-emergence, 1,000 g/ha, evaluated after 13 days (100=total damage; 0=no damage), read-out: Percentage damage ALOMY
[14] = pre-emergence, 1,000 g/ha, evaluated after 13 days (100=total damage; 0=no damage), read-out: Percentage damage AMARE
[15] = pre-emergence, 1,000 g/ha, evaluated after 13 days (100=total damage; 0=no damage), read-out: Percentage damage ECHCG
[16] = pre-emergence, 1,000 g/ha, evaluated after 13 days (100=total damage; 0=no damage), read-out: Percentage damage IPOHE
[17] = pre-emergence, 1,000 g/ha, evaluated after 13 days (100=total damage; 0=no damage), read-out: Percentage damage SETFA
[18] = pre-emergence, 1,000 g/ha, evaluated after 13 days (100=total damage; 0=no damage), read-out: Percentage damage SOLNI
[19] = post-emergence, 1,000 g/ha, evaluated after 13 days (100=total damage; 0=no damage), read-out: Percentage damage caused to weed species, ALOMY
[20] = post-emergence, 1,000 g/ha, evaluated after 13 days (100=total damage; 0=no damage), read-out: Percentage damage caused to weed species, AMARE
[21] = post-emergence, 1,000 g/ha, evaluated after 13 days (100=total damage; 0=no damage), read-out: Percentage damage caused to weed species, ECHCG
[22] = post-emergence, 1,000 g/ha, evaluated after 13 days (100=total damage; 0=no damage), read-out: Percentage damage caused to weed species, IPOHE
[23] = post-emergence, 1,000 g/ha, evaluated after 13 days (100=total damage; 0=no damage), read-out: Percentage damage caused to weed species, SETFA
[24] = post-emergence, 1,000 g/ha, evaluated after 13 days (100=total damage; 0=no damage), read-out: Percentage damage caused to weed species, SOLNI
[25] = pre-emergence, rate 1,000 g/ha, evaluated after 13 days (100=total damage to plant; 0=no damage), read-out: Percentage damage caused to weed species, ALOMY
[26] = pre-emergence, rate 1,000 g/ha, evaluated after 13 days (100=total damage to plant; 0=no damage), read-out: Percentage damage caused to weed species, AMARE
[27] = pre-emergence, rate 1,000 g/ha, evaluated after 13 days (100=total damage to plant; 0=no damage), read-out: Percentage damage caused to weed species, ECHCG
[28] = pre-emergence, rate 1,000 g/ha, evaluated after 13 days (100=total damage to plant; 0=no damage), read-out: Percentage damage caused to weed species, IPOHE
[29] = pre-emergence, rate 1,000 g/ha, evaluated after 13 days (100=total damage to plant; 0=no damage), read-out: Percentage damage caused to weed species, SETFA
[30] = pre-emergence, rate 1,000 g/ha, evaluated after 13 days (100=total damage to plant; 0=no damage), read-out: Percentage damage caused to weed species, SOLNI
[31] = Rate 1,000 g/ha, post-emergence spray, evaluated after 13 days (100=total damage to plant; 0=no damage to plant), read-out: Percentage damage caused to weed species, post-emergence, ALOMY
[32] = Rate 1,000 g/ha, post-emergence spray, evaluated after 13 days (100=total damage to plant; 0=no damage to plant), read-out: Percentage damage caused to weed species, post-emergence, AMARE
[33] = Rate 1,000 g/ha, post-emergence spray, evaluated after 13 days (100=total damage to plant; 0=no damage to plant), read-out: Percentage damage caused to weed species, post-emergence, ECHCG
[34] = Rate 1,000 g/ha, post-emergence spray, evaluated after 13 days (100=total damage to plant; 0=no damage to plant), read-out: Percentage damage caused to weed species, post-emergence, IPOHE
[35] = Rate 1,000 g/ha, post-emergence spray, evaluated after 13 days (100=total damage to plant; 0=no damage to plant), read-out: Percentage damage caused to weed species, post-emergence, SETFA
[36] = Rate 1,000 g/ha, post-emergence spray, evaluated after 13 days (100=total damage to plant; 0=no damage to plant), read-out: Percentage damage caused to weed species, post-emergence, SOLNI

| Structure (SMILES) | pest or weed control at 1000 g/ha [1, 13] | pest or weed control at 1000 g/ha [2, 14] | pest or weed control at 1000 g/ha [3, 15] | pest or weed control at 1000 g/ha [4, 16] | pest or weed control at 1000 g/ha [5, 17] | pest or weed control at 1000 g/ha [6, 18] | pest or weed control at 1000 g/ha [7, 19] | pest or weed control at 1000 g/ha [8, 20] | pest or weed control at 1000 g/ha [9, 21] | pest or weed control at 1000 g/ha [10, 22] | pest or weed control at 1000 g/ha [11, 23] | pest or weed control at 1000 g/ha [12, 24] | pest or weed control at 1000 g/ha [1, 25] | pest or weed control at 1000 g/ha [2, 26] | pest or weed control at 1000 g/ha [3, 27] | pest or weed control at 1000 g/ha [4, 28] | pest or weed control at 1000 g/ha [5, 29] | pest or weed control at 1000 g/ha [6, 30] | pest or weed control at 1000 g/ha [7, 31] | pest or weed control at 1000 g/ha [8, 32] | also measured |
| --- | --- | --- | --- | --- | --- | --- | --- | --- | --- | --- | --- | --- | --- | --- | --- | --- | --- | --- | --- | --- | --- |
| COC(=O)c1nc(C2CC2)nc(NCC(O)c2cccc(O)c2)c1Cl (stereo not drawn) [Compound 4-258, 5-Chloro-2-cyclopropyl-4-[2-hydroxy-2-(3-hydroxyphenyl)-ethylamino]-6-methoxycarbonyl-pyrimidine] | 30% | 100% | 30% | 100% | 40% | 100% | 30% | 100% | 60% | 90% | 70% | 80% | – | – | – | – | – | – | – | – | – |
| COC(=O)c1nc(-c2ccc(F)c(C(F)(F)F)c2)nc(NCc2ccco2)c1Cl [Compound 244-48, 5-Chloro-2-(4-fluoro-3-trifluoromethyl-phenyl)-4-(furan-2-ylmethylamino)-6-methoxycarbonyl-pyrimidine] | – | – | – | – | – | – | – | – | – | – | – | – | 30% | 10% | 20% | 0% | 60% | 30% | 30% | 50% | pest or weed control at 1000 g/ha [9, 33]: 60%; pest or weed control at 1000 g/ha [10, 34]: 30%; pest or weed control at 1000 g/ha [11, 35]: 80%; pest or weed control at 1000 g/ha [12, 36]: 80% |
| CCN(Cc1ccccc1)c1nc(C2CC2)nc(C(=O)OC)c1Cl [Compound 6-60, 5-Chloro-2-cyclopropyl-4-([N-ethyl-N-phenylmethyl]-amino)-6-methoxycarbonyl-pyrimidine] | – | – | – | – | – | – | – | – | – | – | – | – | 20% | 100% | 20% | 20% | 30% | 100% | 30% | 100% | pest or weed control at 1000 g/ha [9, 33]: 70%; pest or weed control at 1000 g/ha [10, 34]: 100%; pest or weed control at 1000 g/ha [11, 35]: 90%; pest or weed control at 1000 g/ha [12, 36]: 90% |
| C=CCN(Cc1cc(Cl)ccc1OC)c1nc(C2CC2)nc(C(=O)OC)c1Cl [Compound 151-117, 5-Chloro-4-[N-(5-chloro-2-methoxyphenylmeth-yl)-N-prop-2-en-1-yl-amino]-2-cyclopropyl-6-methoxycarbonyl-pyrimidine] | – | – | – | – | – | – | – | – | – | – | – | – | 10% | 40% | 0% | 30% | 10% | 30% | 0% | 30% | pest or weed control at 1000 g/ha [9, 33]: 0%; pest or weed control at 1000 g/ha [10, 34]: 60%; pest or weed control at 1000 g/ha [11, 35]: 20%; pest or weed control at 1000 g/ha [12, 36]: 30% |
| COC(=O)c1nc(C2CC2)nc(NCc2ccc3c(c2)OCO3)c1Cl [Compound 4-115, 4-(Benzo[1,3]-dioxol-5-ylmethyl-amino)-5-chloro-2-cyclopropyl-6-methoxycarbonyl-pyrimidine] | 30% | 100% | 60% | 90% | 60% | 90% | 60% | 100% | 80% | 100% | 90% | 100% | – | – | – | – | – | – | – | – | – |
| COC(=O)c1nc(C2CC2)nc(NCc2ccsc2Br)c1Cl [Compound 4-143, 4-(2-Bromothiophen-3-ylmethylamino)-5-chloro-2-cyclopropyl-6-methoxycarbonyl-pyrimidine] | 0% | 70% | 20% | 80% | 0% | 50% | 20% | 90% | 60% | 100% | 70% | 90% | – | – | – | – | – | – | – | – | – |
| CC(Nc1nc(C2CC2)nc(C(=O)O)c1Cl)c1ccc(Cl)cc1 (stereo not drawn) [Compound 1-176, 5-Chloro-4-[1-(4-chlorophenyl)ethyl-amino]-2-cyclopropyl-pyrimidine-6-carboxylic acid] | 0% | 0% | 0% | 0% | 0% | 0% | 10% | 40% | 10% | 40% | 20% | 60% | – | – | – | – | – | – | – | – | – |
| CCOC(=O)c1nc(C2CC2)nc(NCc2ccccc2)c1Cl [Compound 7-60, 5-chloro-2-cyclopropyl-6-ethoxycarbonyl-4-phenylmethyl-aminopyrimidine] | – | – | – | – | – | – | – | – | – | – | – | – | 30% | 70% | 50% | 70% | 50% | 90% | 30% | 100% | pest or weed control at 1000 g/ha [9, 33]: 70%; pest or weed control at 1000 g/ha [10, 34]: 90%; pest or weed control at 1000 g/ha [11, 35]: 90%; pest or weed control at 1000 g/ha [12, 36]: 90% |
| COC(=O)c1nc(C2CC2)nc(NC(c2ccccc2)c2ccc(Cl)cc2)c1Cl (stereo not drawn) [Compound 4-278, 5-Chloro-4-[(4-chlorophenyl)-(phenyl)-methylamino]-2-cyclopropyl-6-methoxycarbonyl-pyrimidine] | 0% | 40% | 10% | 20% | 10% | 10% | 10% | 90% | 20% | 60% | 40% | 30% | – | – | – | – | – | – | – | – | – |
